For orientation: bioavailability means dose-corrected exposure relative to a reference, in per cent. Low values mean little systemic uptake, high ones much systemic uptake. What is called AUC(0-inf) is the area under the concentration-time curve extrapolated to infinity. Lower therefore signals less exposure. For orientation: AUC(0-t) means exposure summed from dosing to a finite time, without extrapolation to infinity. Low values mean low exposure, high ones high exposure. In general, Cmax refers to the maximum level reached in the sampled fluid or tissue. The term Tmax denotes the time at which the peak concentration occurs. The half-life is how long it takes for the measured level to halve. Read a low half-life as fast loss.

Several values for one entry are separate records, joined by “and”; a condition that tells them apart may be missing. Equal entries are not always repeated.

In series [1] the test system is HSP90 and HSP70. The series can be described thus: Western blotting of HSP90 and HSP70 protein levels in LNCaP and 22RV1 cells. The settings on record: 12 h. The class given is cell-based, human. (In general: A western blot detects proteins with antibodies after separation by electrophoresis.)
Series [2] in a line: in vivo. The settings on record: rat; for half-life: plasma. As for the experimental part:
Pharmacokinetic studies in vivo[37] and CYP-associated metabolic studies in vitro[56] were performed using the method reported previously in our laboratory. […] The incubation system, sample preparation and chromatography conditions are as described previously.
A simple and sensitive method for the determination of AIL in plasma was developed, using high-performance liquid chromatography-tandem mass spectrometry (HPLC-MS/MS). Brusatol was used as an internal standard. […] The details of this HPLC-MS/MS method and sample preparation are described in our previous study.
The statistical analysis was performed by SPSS 22.0 software. The differences between control group and experimental groups were determined by one-way analysis of variance. Since treatment and time course was investigated, two-way analysis of variance followed by post hoc test was also applied. Data were expressed as mean and s.d., and P<0.05 was considered significant. Pharmacokinetic parameters were calculated by WinNonlin software version 5.2.1 (Pharsight Corporation, Mountain View, USA) based on noncompartmental analysis. […]
Pharmacokinetic study of ailanthone in rats
Sprague-Dawley rats (purchased from Shanghai SLAC laboratory animal Co. Ltd., Shanghai, China) were fasted for 12 h with free access to water prior to the pharmacokinetic study. The rats were randomized into two groups for oral administration (5mg/kg) and intravenous injection (1mg/kg). Blood samples were collected from the orbital plexus into heparinized centrifuge tubes at fifteen different time points between 5 min to 36 h for the oral administration group and nine time points between 5 min to 6 h for the intravenous one. The pharmacokinetic parameters were calculated by WinNonlin software version 5.2.1 based on noncompartmental analysis. Oral bioavailability was calculated as F (%) = AUC0-∞(p.o.) / AUC0-∞(i.v.) × Dose (i.v.) / Dose (p.o.). […]
Supplementary Figure 9C). […]

Series [3] has as its system LNCaP-MDV3100-R cells. As to the kind of experiment: SRB cell growth assay, LNCaP-MDV3100-R. The settings on record: 72 h, 20 μM. Type of series: cell-based, human.
Description: Cell growth was determined by SRB assay.
the SRB assay (n = 5). The half maximal inhibitory concentration (IC50) was calculated using GraphPad Prism 5.0 (GraphPad, San Diego, CA).
Series [4] deals with 22RV1 xenografts. As to the kind of experiment: 22RV1 subcutaneous xenograft in BALB/c-nude mice. Type of series: in vivo, mouse. The settings on record: 10 mg kg^−1 per day BIC or 2 mg kg^−1 per day AIL, i.p.
Series [5] concerns LNCaP xenografts. The series can be described thus: LNCaP subcutaneous xenograft in BALB/c-nude mice. The class given is in vivo, mouse. The settings on record: 10 mg kg^−1 per day BIC or 2 mg kg^−1 per day AIL, i.p.
Description: (§1) (a–c) 22RV1 (a), LNCaP (b) and VCaP (c) cells suspended in 0.1 ml PBS (22RV1) or matrigel (LNCaP, VCaP) were injected into the right flank of BALB/c-nude mice. Androgen containing blocks were subcutaneously inserted into each mouse in the LNCaP and VCaP xenograft models. […] The control group was injected with DMSO. Tumour volume and the mouse body weight were measured twice per week.
(§2) BALB/c-nude mice (6–8-weekold, male) were purchased from the Sino-British Sippr/BK Lab Animal Co., Ltd (Shanghai, China) and maintained under pathogen-free conditions. The animal use protocol was approved by the Institutional Animal Care and Use Committee of East China Normal University. The 22RV1, LNCaP and VCaP xenograft tumour models were developed by injecting 3 × 10^6 22RV1 cells or 5 × 10^6 LNCaP or VCaP cells in suspension into the right flank of a BALB/c-nude mouse; cells were suspended in 100 μl PBS or 50% matrigel (LNCaP and VCaP), respectively. Specifically for LNCaP and VCaP cells, continuous release testosterone pellets (15 mg testosterone per pellet, Sigma-Aldrich) were implanted subcutaneously to stimulate the growth of LNCaP and VCaP xenografts. […] The tumour volume and mouse body weight were measured twice a week. The tumour volume was calculated using the following equation: tumour volume (V)=length × width × width × 0.52. […]
(§3) Tumor volume and the mouse body weight were measured once a week. […]
Series [6] concerns LNCaP cells. As to the kind of experiment: SRB cell growth assay, LNCaP. The settings on record: androgen-starved LNCaP, 0.1 nM R1881, 96 h; 10 μM BIC, 10 μM MDV, 0.1-0.4 μM AIL.
For series [7], the system named is c4-2b cells. The series can be described thus: SRB cell growth assay, c4-2b. The settings on record: R1881, 96 h, 10 μM.
Series [8] relates to 22RV1 cells. The series can be described thus: SRB cell growth assay, 22RV1. The settings on record: 22RV1, R1881, 96 h, 10 μM.
In series [9] the test system is AR protein. As to the kind of experiment: Western blotting of AR protein level in PCa cell lines. The class given is cell-based, human. The settings on record: LNCaP, 22RV1, LNCaP-MDV3100-R and VCaP cell lines (CEL: LNCaP and 22RV1, 12 h). The source says: Scale bars, 10 μm. […] Scale bars, 20 μm.
The test system of series [10] is VCaP xenografts. As to the kind of experiment: VCaP subcutaneous xenograft in BALB/c-nude mice. The class given is in vivo, mouse. The settings on record: 2 mg/kg AIL or 10 mg/kg MDV, i.p.
Description: as §1, §2, §3
For series [11], the system named is 22RV1-luc orthotopic xenografts. As to the kind of experiment: Orthotopic castration-resistant prostate cancer model (22RV1-luc, castrated mice). The class given is in vivo, mouse. The settings on record: i.p. once per day, 28 days, AIL 2 mg kg^−1 (95% CI 70–95%), MDV 10 mg kg^−1 (95% CI 0–36%).
Description: (d) Male BALB/c-nude mice were anaesthetized, and the dorsolateral prostate was injected with 22RV1-luc cells in matrigel. […] Tumours were imaged every week to determine local tumour growth and evidence of tumour cell dissemination. Representative images of three mice per group were illustrated (n=5). (e) After 28 days, mice were killed and local tumours and viscera of the mice were imaged to determine tumour growth and evidence of tumour cell dissemination.
For orthotopic castration-resistant prostate cancer xenografts, male BALB/c-nude mice (8–9 weeks of age) were anaesthetized using 150 mg kg^−1 2, 2, 2-tribromethanol plus 350 mg kg^−1 tert-amyl alcohol and then 5 × 10^5 22RV1-luc cells suspended in 30 μl 50% matrigel were surgically injected into the dorsolateral prostate lobes. One week after injection, the tumour-bearing mice were castrated and randomly assigned to three groups. […] Prostate tumour growth and local metastasis were monitored weekly using the IVIS Imaging System (Xenogen Corporation, Alameda, CA). Images and measurements of bioluminescent signals were acquired and analysed using Living Image and Xenogen software[52].
Series [12] deals with PSA mRNA. As to the kind of experiment: Quantitative-PCR of PSA mRNA in 22RV1 cells. The settings on record: 12 h.
Description: Total RNA was extracted using TRIzol (Takara, Japan) according to the manufacturer's instructions. One microgram of total RNA was used for complementary DNA synthesis using a cDNA reverse transcription kit (Takara, Japan). Real-time PCR was performed in triplicate using gene-specific primers on a Stratagene Mx3005P PCR system (Agilent Technologies) machine. The mRNA expression levels were normalized to β-actin expression or GAPDH.
[13] abbreviates: Sprague-Dawley, in vivo, iv, 1 mg/kg.
Setting [14] is: Sprague-Dawley, in vivo, po, 5 mg/kg.

In the case of `C=CCNC1=C2C[C@@H](C)C[C@H](OC)[C@H](O)[C@@H](C)/C=C(\C)[C@H](OC(N)=O)[C@@H](OC)/C=C\C=C(/C)C(=O)NC(=CC1=O)C2=O` [17-AAG], the “HSP90 and HSP70 protein levels” value in series [1] is given as “induced upregulation”.

On to `C=C1[C@@H](O)[C@]2(O)OC[C@]34[C@H]2[C@@]2(C)[C@H](O)C(=O)C=C(C)[C@@H]2C[C@H]3OC(=O)C[C@@H]14` [AIL, Ailanthone], for which the bioavailability in series [2] (Sprague-Dawley, in vivo) is 25.7%. Further, in series [2] (setting [13]), the AUC(0-inf) is 1030 ng·h/mL; the AUC(0-t) was 965 ng·h/mL; the C0 was 1650 ng/mL and 4.39 µM. Also, in series [2] (setting [14]), the AUC(0-inf) is 1320 ng·h/mL; the AUC(0-t) is 1120 ng·h/mL; the Cmax is 87 ng/mL and 231 nM; the Tmax is 0.388 h. In [2] (iv, i.v. 1 mg kg^−1, n=6, mean±s.d.), this compound had a half-life of 1.89 ± 0.66 h. This compound also had a half-life in [2] (po, p.o. 5 mg kg^−1, n=6, mean±s.d.) of 12.2 ± 2.6 h.

Turning to `CC(O)(CS(=O)(=O)c1ccc(F)cc1)C(=O)Nc1ccc(C#N)c(C(F)(F)F)c1` (centres unmarked) [BIC, bicalutamide], the “cell growth (SRB)” value in series [3] is “totally resistant”; in series [6], “effectively blocked cell growth”; in series [7], “could not significantly inhibit cell growth”; in series [8], “could not significantly inhibit cell growth”. Besides, the tumour growth result in [4] is “resistant”. The tumour volume result in [5] is listed as “significantly reduced the tumour volume”.

On to `CC1=C(O)C(=O)C=C2C1=CC=C1[C@@]2(C)CC[C@@]2(C)[C@@H]3C[C@](C)(C(=O)O)CC[C@]3(C)CC[C@]12C` [CEL, Celastrol], for which, in series [9], the AR protein level result is “downregulated the protein level of AR”.

Regarding `CNC(=O)c1ccc(N2C(=S)N(c3ccc(C#N)c(C(F)(F)F)c3)C(=O)C2(C)C)cc1F` [MDV, MDV3100], the “cell growth (SRB)” value in [3] is reported as “totally resistant”; in [6], “effectively blocked cell growth”; in [7], “could not significantly inhibit cell growth”; in series [8], “could not significantly inhibit cell growth”. Further, the response of xenografts entry in [10] was “still responded”. Besides, the “reduction of tumour volume” value in [11] came to 15%. Further, the “PSA mRNA level in the presence of R1881” value in series [12] (22RV1, 10 nM R1881, 10 μM MDV or 0.2 μM AIL) is reported as “decreased”. Further, in [12] (22RV1, no R1881, 10 μM MDV or 0.2 μM AIL), the “PSA mRNA level in the absence of R1881” value was “no effect”.

The record behind these values is publication PMC5159881 (Nature Communications, 2016).
